From a melting point compilation (Tetko et al.; mined from patent text by program, amines drawn as free bases though some values may be those of a salt)

First: O=C(CC1CCC(CC(=O)Oc2cc(O)cc(O)c2)CC1)Oc1cc(O)cc(O)c1 (stereo not given)
Second: O=C(CC1CCCC1)Nc1ccc2cccc(O)c2c1
The melting point of the first is higher: 215 to 220 °C for the first, 162 to 165 °C for the second.

Compared with `CC(O)=C(C#N)C(=O)N1CCN(c2ccc(NC(=O)c3cnn(-c4ccc(F)cc4)c3C)cc2C#N)CC1`, `CN(Cc1cc2c3c(c1)c(=O)c(C(=O)NCc1ccc(F)cc1)cn3CC(=O)N2C)C[C@@H](O)c1ccsc1` is lower in melting point: 210 °C for the first, 150 to 152 °C for the second.

First: COC(=O)c1ccc(O)c([C@H](CCN(C(C)C)C(C)C)c2ccccc2)c1
Second: CCCc1c([C@@H]2C[C@H]2c2ccccc2)oc2ccc(C(=O)OC)cc2c1=O (relative stereo)
The melting point of the first is lower: 102 °C for the first, 171 to 173 °C for the second.

First: CC(C)(C)c1cc(-c2c(S)ssc2=S)cc(C(C)(C)C)c1O
Second: Cn1ccc2ccc(NC(=O)/C=C/c3ccc(C(C)(C)C)cc3)cc21
The melting point of the first is higher: 182 °C for the first, 95 °C for the second.

First: O=c1[nH]c2ccccc2n1CCN1CCC(C(c2ccc(F)cc2)c2ccc(F)cc2)CC1
Second: O=C(CCC[C@H](O)c1ccc(F)cc1)N1C(=O)OC[C@@H]1c1ccccc1
The melting point of the first is higher: 104 to 106 °C for the first, 39.7 °C for the second.

First: COC(=O)c1ccc(C(=O)NCCCCNC(=O)c2ccc(C(=O)OC)cc2)cc1
Second: COc1ccc(C(=O)Nc2ccccc2)cc1NS(=O)(=O)c1ccc(C)cc1
The melting point of the first is higher: 260 to 261 °C for the first, 200 to 202 °C for the second.

First: O=C(O)C(F)(F)C(F)(F)C(F)(F)C(F)(F)C(F)(F)C(F)(F)C(=O)O
Second: CC(C)(C)CC(C)(C)c1ccc(Oc2ccc(C(F)(F)F)cc2NC(=O)Nc2cc(C(F)(F)F)cc(C(F)(F)F)c2)c(C(=O)O)c1
The melting point of the first is lower: 142 to 144 °C for the first, 233 °C for the second.

Compared with `CCCCCCCCCCCCCCCc1cc2cc(C(=O)OC)ccc2[nH]1`, `CCCCCCCCCCCCCCOc1ccc(C(=O)Nc2cccc(CO)c2)cc1` is higher in melting point: 89 to 92 °C for the first, 112 to 115 °C for the second.

First: CON=C(C#CCCl)C(=O)OC
Second: CCCc1c(OCCOCCC(=O)OC)ccc(C(C)=O)c1O
The melting point of the first is higher: 64 to 67 °C for the first, 48 to 50 °C for the second.

Compared with `Cc1ccc(-c2c(Cl)nc(C#N)n2O)cc1`, `Cc1ccc(-c2ncncc2Br)cc1` is lower in melting point: 212 to 215 °C for the first, 81 to 82 °C for the second.

First: Cn1nc(-c2c(Cl)cncc2Cl)nc1Cc1ccncc1
Second: Cn1ncc2c1-c1c(Cc3ccccc3)sc(C(=O)O)c1CC2
The melting point of the first is lower: 130 to 132 °C for the first, over 300 °C for the second.

First: O=C1CSCN1c1cc(Cl)cc(Cl)c1
Second: O=[N+]([O-])c1cc(C2=NOC(c3cc(Cl)cc(Cl)c3)(C(F)(F)F)C2)ccc1-n1cncn1 (stereo not given)
The melting point of the first is higher: 87 to 92 °C for the first, 64 to 72 °C for the second.

First: COc1ccc2c(Cl)cc(-c3ccc(C)cc3)nc2c1
Second: COc1ccc(Nc2nc(N)c3[nH]c(C)cc3n2)cc1
The melting point of the first is lower: 129 to 131 °C for the first, 161 to 163 °C for the second.

First: CNC#CCC1=Cc2ccccc2Sc2ccc(Cl)cc21
Second: CC(O)(C#CCCO)c1ccc(-c2ccc(Cl)cc2)cc1 (stereo not given)
The melting point of the first is lower: 92 to 94 °C for the first, 105 °C for the second.

First: C[C@]12CCC(=O)C=C1CC[C@@H]2c1cn(Cc2ccccc2)nn1
Second: CN1C(=O)CC[C@]2(C)c3ccc(C(=O)c4ccccc4)cc3CC[C@@H]12
The melting point of the first is higher: 122 to 125 °C for the first, 116 °C for the second.

First: O=[N+]([O-])c1ccc(Oc2cc3ccccc3cc2Oc2ccc([N+](=O)[O-])c(O)c2)cc1O
Second: Oc1ccc(C2(c3cccc(O)c3)c3ccccc3-c3ccccc32)cc1
The melting point of the first is lower: 179 to 181 °C for the first, 221 °C for the second.

First: O=C(O)c1ccc(-c2nc(-c3c(F)c(F)c(F)c(F)c3F)cs2)cc1
Second: O=C(NC(O)C(F)(F)F)c1ccc(Cl)cc1 (stereo not given)
The melting point of the first is higher: 273 to 274 °C for the first, 140 °C for the second.

First: CCc1ccc2c(c1)NC(=O)C2=O
Second: O=C1NC(=Cc2ccc(Cl)cc2Cl)C(=O)C1=NO
The melting point of the first is lower: 128 to 136 °C for the first, 180 °C for the second.

First: COc1ccc(C(=O)NC(C)(C#N)c2ccccn2)cc1 (stereo not given)
Second: COc1nc(C)cnc1NS(=O)(=O)c1cccnc1-c1ccc(OC(C)C(=O)O)cc1 (stereo not given)
The melting point of the first is higher: 173 °C for the first, 149 to 151 °C for the second.

First: Nc1ccc(C(=O)c2ccncc2)cc1N
Second: CC(Oc1ccc(Oc2ncc(Cl)cc2N)cc1)C(=O)O (stereo not given)
The melting point of the first is higher: 210 to 214 °C for the first, 152 to 154 °C for the second.

First: Cc1sc(CCc2ccc(CO)cc2)nc1-c1ccccc1
Second: Cc1cccc(C(=O)Nc2nc(=O)c3ccccc3[nH]2)c1
The melting point of the first is lower: 62 to 63 °C for the first, 211 to 213 °C for the second.

First: C1CCCCCC(=NOC(=NC2CCCCC2)NC2CCCCC2)CCCCC1
Second: CCOC(=O)N1CCCC(NC(=O)c2ccc(Cl)c(Cl)c2)C12CCCCC2 (stereo not given)
The melting point of the first is higher: 108 to 111 °C for the first, 74 to 77 °C for the second.

Compared with `COCCO[C@@H]1c2ccc3c(nc(C4CC4)n3C)c2O[C@H](c2ccccc2)[C@H]1O`, `Cc1nc2c(OCc3ccccc3)cc(Br)cc2n1C` is higher in melting point: 133 °C for the first, 177 to 179 °C for the second.

First: O=C(OCc1ccncc1)c1cc2c(=O)n(Cc3ccccc3)c(=O)[nH]c2s1
Second: COC(=O)Nc1nc(Cc2ccccc2)c(C(=O)c2sc(NC(=O)OC)nc2Cc2ccccc2)s1
The melting point of the first is higher: 248 to 250 °C for the first, 189 to 190 °C for the second.

First: Cc1cc(N)cc(C)c1-c1ccc(-c2c(C)cc(N)cc2C)o1
Second: COc1ccc(N2CCc3c2c2cccc(OC)c2[nH]c3=O)c(C)c1
The melting point of the first is lower: 144 to 146 °C for the first, 188 to 191 °C for the second.

First: CN(C(=O)Nc1ccc(Oc2ccccc2)cc1)C(Cl)C(Cl)(Cl)Cl (stereo not given)
Second: C/C(=C\CNC(=O)c1ccccc1)c1ccccc1
The melting point of the first is higher: 160 to 162 °C for the first, 139 °C for the second.

First: Fc1cccc(F)c1COc1cccnc1NC(=S)Nc1ccc(Cl)cc1
Second: O=C(c1c(F)cccc1F)N1CS(=O)CN(c2ccc(Cl)cc2)C1=O (stereo not given)
The melting point of the first is lower: 151 to 154 °C for the first, 220 °C for the second.

Compared with `O=C(C(Br)c1ccc(Cl)cc1)C1(c2ccc(Cl)c(Cl)c2)CCC1` (stereo not given), `CC(=O)NNc1ccnc2c(NC(=O)c3c(Cl)cccc3Cl)cc(F)cc12` is higher in melting point: 109 to 110 °C for the first, 250 to 254 °C for the second.

First: O=C(O)CC[C@H](NCC(O)C(O)C(O)C(O)CO)C(=O)O (stereo not given in full)
Second: O=C(O)CCc1ccc(C(=O)CCl)cc1
The melting point of the first is lower: 94 °C for the first, 151 to 153 °C for the second.

Compared with `Cc1cc(C)n2nc(NS(=O)(=O)c3cc(Cl)ccc3Cl)nc2n1`, `Cc1cc(C(F)(F)F)n2nc(SCc3ccccc3)nc2n1` is lower in melting point: 216 to 218 °C for the first, 83.5 to 84.5 °C for the second.

First: O=C(CN1CCOCC1)N1CCN(Cc2ccc3c(c2)-c2[nH]nc(-c4ccsc4)c2C3)CC1
Second: O=C(CCN1CCOCC1)Nc1cc(-c2nnc(CCc3cccc(F)c3)o2)ccn1
The melting point of the first is higher: 240 to 242 °C for the first, 149 to 150 °C for the second.

Compared with `CNC(=O)C(Cc1ccc(OC)cc1)NC(=O)C(CC(C)C)C(S)CC(=O)NCC(=O)OC(C)(C)C` (stereo not given), `CCOCC(=O)Nc1ccc(OC(=O)NC)cc1C` is lower in melting point: 223 to 226 °C for the first, 118 to 121 °C for the second.

Compared with `CC(=O)C1CCC2C3CCC4CC5OC5CC4(C)C3C(OC(=O)CCl)CC12C` (stereo not given), `CC12CCC3c4ccc(O)cc4C(O)C(Sc4ccc(Br)cc4)C3C1CCC2O` (stereo not given) is lower in melting point: 163 to 169 °C for the first, 140 to 145 °C for the second.

First: FC(F)(F)CNC(=S)NCc1ccc(OC(F)(F)F)cc1
Second: NNc1nccc(-c2cccc(C(F)(F)F)c2)n1
The melting point of the first is lower: 94.7 to 96.4 °C for the first, 103 to 106 °C for the second.

Compared with `O=C1c2c(Cl)cccc2-n2cnc(-c3noc(C4CC4)n3)c2[C@@H]2CCCN12`, `NC(=O)c1ncn2c1[C@@H]1CCCN1C(=O)c1sccc1-2` is lower in melting point: 236 to 237 °C for the first, 222 to 223 °C for the second.

First: CCCn1cc(Cc2ccc(C(=O)NS(=O)(=O)c3ccccc3C)cc2OC)c2cc(CCNC(=O)N3CCOCC3)ccc21
Second: Cc1cccc(NC(=O)C2=C(O)c3ccc4ccccc4c3S(=O)(=O)N2C)n1
The melting point of the first is lower: 117 to 123 °C for the first, 221 to 223 °C for the second.

First: CCCCCCCCCCCCCCCCC#CCC(CO)COCCCCCCCCCCCCCCCC (stereo not given)
Second: CCCCc1nc2cccnc2n1Cc1ccc2c(Cl)c(C(=O)OC)sc2c1
The melting point of the first is lower: 46 to 47 °C for the first, 127 to 129 °C for the second.

Compared with `CNc1nc(Cl)c(Cl)c(N2CCN(C(=O)OC(C)(C)C)CC2)n1`, `COC(=O)C(C)(C)S(=O)(=O)N1CCC(c2ccc(-c3nccs3)c(C)c2)CC1` is lower in melting point: 129 to 131 °C for the first, 111 to 114 °C for the second.

Compared with `CSc1nc(SC)c2ccccc2n1`, `CN(C)c1nc2ccccc2n2cnnc12` is higher in melting point: 85 °C for the first, 184 to 186 °C for the second.

First: COc1ccccc1Oc1cccc2c1C(=O)N(C1CCC(=O)NC1=O)C2=O (stereo not given)
Second: Cc1cc(C)cc(NC(=O)NCc2ccc3c(c2)CN(C2CCC(=O)NC2=O)C3=O)c1 (stereo not given)
The melting point of the first is lower: 223 to 225 °C for the first, 289 to 291 °C for the second.

First: CSC1=C(c2cccc3sccc23)N2CCN=C2S1
Second: CC(C)OCc1cnc2c(N)cccc2c1Cl
The melting point of the first is higher: 104 to 107 °C for the first, 94 to 95 °C for the second.

`Cc1ccc(N=CN(C)SN(C)c2ccccc2)c(C)c1` and `CCN(CC)C(=O)c1ccoc1-c1ccc(N(C)C)cc1` cannot be ordered by melting point: 72 to 73.5 °C for the first, 73 to 74 °C for the second.

`N#Cc1ccnc(-c2nc(=O)c3ccccc3s2)c1` and `N#CCNc1nc(N2CCc3ccccc3CC2)c(C#N)c(=O)[nH]1` cannot be ordered by melting point: 283 to 284 °C for the first, over 200 °C for the second.

First: CCCCc1c2c(cc3ccc(O)cc13)-c1ccc(O)cc1CO2
Second: CCc1nc(C)c(C(=O)Nc2cc(Oc3ccc4nc(NC(=O)C5CC5)cn4n3)ccc2F)o1
The melting point of the first is lower: 187 to 189 °C for the first, 228 °C for the second.

First: CC(=S)NCC1CN(c2ccc(C(=O)NN)c(F)c2)C(=O)O1 (stereo not given)
Second: CC(Oc1ccc(F)cc1F)(C(=O)Nc1nc(CC(=O)O)c(Cl)s1)c1ccc(S(C)(=O)=O)cc1 (stereo not given)
The melting point of the first is higher: 177 °C for the first, 109 to 111 °C for the second.

First: CN1CC(=O)N2c3ccccc3Cn3c(cc4ccccc43)C2C1=O (stereo not given)
Second: O=c1ccc2c(-c3ccccc3)cc(N3CCN(Cc4ccccc4)CC3)n2cc1
The melting point of the first is higher: 188 to 189 °C for the first, 157 °C for the second.

First: CC(C)(C)OC(=O)n1cc(C(=O)C=C(O)C2(C(=O)O)C=CC=CC2)c2ccccc21 (stereo not given)
Second: COc1cc2c(cc1OC)C(c1ccc([N+](=O)[O-])cc1)=NN(c1ccccn1)[C@H](C)C2
The melting point of the first is lower: 138 to 141 °C for the first, 210 to 214 °C for the second.

Compared with `O=c1[nH]c2ncc(-c3ccc(O)cc3)nc2n1CC1CCCC1`, `C[C@@H]1CN(c2ccc(C(F)(F)F)cn2)C[C@H](C)N1CC(=O)N1CC=C(c2ccc3ccccc3n2)CC1` is lower in melting point: 296 to 297 °C for the first, 94 to 95 °C for the second.

Compared with `CN1CCN(CCCNc2ncc3cc(-c4c(Cl)cccc4Cl)c(NC(=O)Nc4ccc(Br)cc4)nc3n2)CC1`, `O=C(Oc1ccc(Oc2ccccc2)cc1)c1ccc(C(=O)Oc2ccc(Oc3ccccc3)cc2)cc1` is higher in melting point: 171 to 175 °C for the first, 193 to 194 °C for the second.

First: CC(O)c1cc(I)c(O)c(Cl)n1 (stereo not given)
Second: COCCSc1cc(N)ncn1
The melting point of the first is higher: 114 to 116 °C for the first, 78 to 80 °C for the second.
